According to PMC8589421, “Impact of Type II LRRK2 inhibitors on signaling and mitophagy” (Biochemical Journal, 2021):
Where two headings read alike, the source gives them in different places.

How the values were obtained:
[1] = tested on: LRRK2 at Ser935; test: LRRK2 Ser935 phospho-immunoblot in wild-type MEFs; format: cell-based, mouse; settings: MEFs, 2 h dose response
Method: (§1) Wild-type and homozygous LRRK2 [R1441C] […] All cells were grown at 37°C, 5% (by vol) CO2 in a humidified atmosphere and regularly tested for mycoplasma contamination.
(§2) Inhibitors were dissolved in dimethyl sulfoxide (DMSO) (Sigma, #D2650). The inhibitors were diluted 1000× into cell medium. The equivalent volume of DMSO was added to the minus inhibitor controls. Experiments were performed in six-well plates, 10 cm dishes or 15 cm dishes depending on the amount of cell extract required.
(§3) Lysates were incubated on ice for 30 min and clarified by centrifugation at 20 800×g at 4°C for 20 min. Supernatants were quantified by Bradford assay (Bio-Rad Protein Assay Dye Reagent Concentrate #5000006) and samples prepared in 1× lithium dodecyl sulfate sample buffer final concentration (NuPage LDS Sample buffer 4× Invitrogen, #NP0008). When not deployed immediately, lysates were snap-frozen in liquid nitrogen and stored at −80°C until use.
(§4) Cell extracts were mixed with a quarter of a volume of NuPage LDS Sample buffer 4× Invitrogen and heated at 95°C for 5 min. […] At the end of electrophoresis, proteins were electrophoretically transferred onto the nitrocellulose membrane (GE Healthcare, Amersham Protran Supported 0.45 µm NC) at 100 V for 90 min on ice in the transfer buffer (48 mM Tris–HCl and 39 mM glycine supplemented with 20% methanol). Transferred membrane was blocked with 5% (w/v) skim milk powder dissolved in TBS-T [20 mM Tris–HCl, pH 7.5, 150 mM NaCl and 0.1% (v/v) Tween 20] at room temperature for 1 h. The membrane was typically cropped into three pieces, namely the ‘top piece’ (from the top of the membrane to 75 kDa), the ‘middle piece’ (between 75 and 30 kDa) and the ‘bottom piece’ (from 30 kDa to the bottom of the membrane). All primary antibodies were used at 1 μg/ml final concentration and incubated in TBS-T containing 5% (by mass) bovine serum albumin with exception of α-tubulin and GAPDH antibodies that were diluted 1 : 5000 and 1 : 2000, respectively. The top piece was incubated with the indicated rabbit anti-LRRK2 phosphorylation site antibody multiplexed with mouse anti-LRRK2 C-terminus total antibody. The middle piece was incubated with mouse anti-GAPDH or anti-α-tubulin antibody. The bottom pieces were incubated with indicated total and phospho-Rab antibodies. Membranes were incubated in primary antibody overnight at 4°C. Prior to secondary antibody incubation, membranes were washed three times with TBS-T for 10 min each. […] Membranes were washed with TBS-T for three times with a 10 min incubation for each wash. Protein bands were acquired via near infrared fluorescent detection using the Odyssey CLx imaging system and quantified using the Image Studio software.

[2] = tested on: Rab10 phosphorylation, LRRK2[A2016T]; test: Rab10 Thr73 phospho-immunoblot in inhibitor resistant LRRK2[A2016T] knock-in MEFs; format: cell-based, mouse; settings: 2 h, up to 3 µM
Method: (§5) Wild-type and homozygous LRRK2 [R1441C] (Jax, stock number: 009346), LRRK2[G2019S] Taconic, (model 13940) and LRRK2 [A2016T] (Jax, stock number: 021828)[7] knock-in MEF cells were isolated from littermate-matched mouse embryos on a C57BL/6J background at day E12.5 as described previously. MEFs were grown in Dulbecco's modified Eagle medium (DMEM GIBCO, #11960-085) containing 10% (by vol) fetal bovine serum (FBS), 2 mM L-glutamine, 100 U/ml penicillin, and […] streptomycin supplemented with non-essential amino acids and 1 mM sodium pyruvate. Human embryonic kidney 293 (HEK293) (#ATCC CRL-1573) and HeLa (#ATCC CCL-2) cells were purchased from American Tissue Culture Collection (ATCC) and cultured in DMEM containing 10% (by vol) FBS, 2 mM L-glutamine, 100 U/ml penicillin, and […] streptomycin. All cells were grown at 37°C, 5% (by vol) CO2 in a humidified atmosphere and regularly tested for mycoplasma contamination.
as §2
(§6) Cells were lysed in an ice-cold lysis buffer containing 50 mM Tris–HCl, pH 7.4, 1% (by vol) Triton X-100, 10% (by vol) glycerol, 150 mM NaCl, 1 mM sodium orthovanadate, 50 mM NaF, 10 mM 2-glycerophosphate, 5 mM sodium pyrophosphate, 1 µg/ml microcystin-LR, and cOmplete EDTA-free protease inhibitor cocktail (Roche, #11836170001). Lysates were incubated on ice for 30 min and clarified by centrifugation at 20 800×g at 4°C for 20 min. Supernatants were quantified by Bradford assay (Bio-Rad Protein Assay Dye Reagent Concentrate #5000006) and samples prepared in 1× lithium dodecyl sulfate sample buffer final concentration (NuPage LDS Sample buffer 4× Invitrogen, #NP0008). When not deployed immediately, lysates were snap-frozen in liquid nitrogen and stored at −80°C until use. […]

[3] = tested on: mouse embryonic fibroblast cells (MEFs); test: Cell morphology and attachment of MEFs; format: cell-based
[4] = tested on: LRRK2 mediated phosphorylation of Rab10 at Thr73; test: Rab10 Thr73 phospho-immunoblot in wild-type MEFs; format: cell-based, mouse; settings: Mus musculus, 2 h
Method: as §1, §2, §3, §4

[5] = tested on: Dundee panel of 140 protein kinases; test: Kinase profiling; format: biochemical
Excerpt: […] Results for each kinase are presented as the mean kinase activity ±S.D. for an assay undertaken in duplicate relative to a control kinase assay in which the inhibitor was omitted. Abbreviations and assay conditions used for each kinase are available (http://www.kinase-screen.mrc.ac.uk/services/premier-screen).

[6] = tested on: LRRK2 Ser935 phosphorylation, LRRK2[R1441C]; test: LRRK2 Ser935 phospho-immunoblot in LRRK2[R1441C] knock-in MEFs; format: cell-based, mouse; settings: dose and time dependent
Method: as §5, §2
Cells were lysed in an ice-cold lysis buffer containing 50 mM Tris–HCl, pH 7.4, 1% (by vol) Triton X-100, 10% (by vol) glycerol, 150 mM NaCl, 1 mM sodium orthovanadate, 50 mM NaF, 10 mM 2-glycerophosphate, 5 mM sodium pyrophosphate, 1 µg/ml microcystin-LR, and cOmplete EDTA-free protease inhibitor cocktail (Roche, #11836170001). Lysates were incubated on ice for 30 min and clarified by centrifugation at 20 800×g at 4°C for 20 min. Supernatants were quantified by Bradford assay (Bio-Rad Protein Assay Dye Reagent Concentrate #5000006) and samples prepared in 1× lithium dodecyl sulfate sample buffer final concentration (NuPage LDS Sample buffer 4× Invitrogen, #NP0008). When not deployed immediately, lysates were snap-frozen in liquid nitrogen and stored at −80°C until use.
Cell extracts were mixed with a quarter of a volume of NuPage LDS Sample buffer 4× Invitrogen and heated at 95°C for 5 min. […] At the end of electrophoresis, proteins were electrophoretically transferred onto the nitrocellulose membrane (GE Healthcare, Amersham Protran Supported 0.45 µm NC) at 100 V for 90 min on ice in the transfer buffer (48 mM Tris–HCl and 39 mM glycine supplemented with 20% methanol). Transferred membrane was blocked with 5% (w/v) skim milk powder dissolved in TBS-T [20 mM Tris–HCl, pH 7.5, 150 mM NaCl and 0.1% (v/v) Tween 20] at room temperature for 1 h. […]

[7] = tested on: Rab10 pThr73, LRRK2 [R1441C]; test: Rab10 Thr73 phospho-immunoblot in LRRK2[R1441C] knock-in MEFs; format: cell-based, mouse; settings: Mus musculus, 2 h, read-out: LRRK2 [R1441C] Rab10 pThr73 IC50
Method: as §5, §2, §6

[8] = tested on: Rab10 pThr73, LRRK2 [G2019S]; test: Rab10 Thr73 phospho-immunoblot in LRRK2[G2019S] knock-in MEFs; format: cell-based, mouse; settings: Mus musculus, 2 h, read-out: LRRK2 [G2019S] Rab10 pThr73 IC50
Method: as §5, §2, §6

Compound | effect on LRRK2 Ser935 phosphorylation [1] | effect of A2016T mutation on inhibition of Rab10 phosphorylation [2] | concentration that impacted cell morphology and attachment [3] | inhibition at 10 µM ([4]; wild-type MEFs, 10 μM) | number of the 140 kinases assayed suppressed by over 80% ([5]; 0.1 μM inhibitor) | number of the 140 kinases assayed suppressed by over 80% ([5]; 1 μM inhibitor) | effect on Ser935 phosphorylation in LRRK2[R1441C] knock-in cells [6] | IC50 [7] | IC50 [8] | IC50 ([4]; read-out: LRRK2 WT Rab10 pThr73 IC50, wild type MEFs littermate matched to LRRK2[G2019S], 2 h, panel (B)) | IC50 ([4]; read-out: LRRK2 WT Rab10 pThr73 IC50, wild type MEFs littermate matched to LRRK2[R1441C], 2 h, panel (A))
C[C@@H]1CN(c2cc(-c3n[nH]c4ccc(OC5(C)CC5)cc34)ncn2)C[C@H](C)O1 [MLi-2] | complete dephosphorylation | markedly suppressed inhibition of Rab10 phosphorylation | – | – | – | – | – | – | – | – | –
Cc1ccc(C(=O)Nc2ccc(CN3CCN(C)CC3)c(C(F)(F)F)c2)cc1C#Cc1cnc2cccnn12 [Ponatinib] | without affecting Ser935 phosphorylation | – | above 10 μM | ~50% | 14 | 20 | – | – | – | – | –
CNC(=O)c1cc(Oc2ccc(NC(=O)Nc3cc(C(C)(C)C)nn3-c3ccc4ncccc4c3)c(F)c2)ccn1 [Rebastinib] | did not induce dephosphorylation of Ser935 | markedly blocked | – | – | – | 18 | rescue Ser935 phosphorylation | 1310 nM | 1070 nM | 478 nM | 539 nM
